The subject of assay [1] is HUVEC. The experiment in a line: HUVEC tube formation assay. Conditions: 25 μM peptide; FIG. 3 A-B. The format is cell-based, human. On the procedure:
Tube Formation Inhibition Assays.
The compositions also were tested for their ability to inhibit tube formation, a process critical in angiogenesis. Endothelial cells spontaneously form a network of tubes when plated on extracts of extracellular matrix. This in vitro assay combines aspects of adhesion and migration and it is routinely used in angiogenesis research (Oliveira-Ferrer et al., 2008). The ability to inhibit tube formation is a comprehensive assessment of the anti-angiogenic potential. The protocol was described by Arnaoutova et al. (2009) and it consists of plating HUVEC on top of basement membrane extract. After incubation at 37° C., the cells naturally rearrange themselves in a network of tubes. Thus, 50 μL/well of Matrigel (BD Biosciences, San Jose, Calif.) was plated in a cold 96 well plate and incubated at 37° C. for 30 min for polymerization. 15,000 cells/well were added to the top of the gel and incubated in complete media in the presence or absence of peptide for 19 hours. Images were captured using the CCD Sensicam mounted on a Nikon microscope (Eclipse T-100). Assays were performed in at least two independent replicates and each replicate was performed using three experimental replicates and one image of a randomly chosen field was acquired per well.

Assay [2] relates to lymphatic endothelial cell (LEC). The experiment in a line: LEC tube formation assay. Conditions: FIG. 5. The format is cell-based.

Consider one sequence from patent US10774112B2, “Biomimetic peptide and biodegradable delivery platform for the treatment of angiogenesis- and lymphangiogenesis-dependent diseases” (THE JOHNS HOPKINS UNIVERSITY, priority 2013, dated 2020).

On to “LRRFSTAPFAFIDINDVINF (Artificial sequence based on human Collagen Type IV protein) [SP2043]”, for which the HUVEC tube formation entry in assay [1] is on record as “inhibit”. Also, the LEC tube formation entry in assay [2] is listed as “inhibit”.
